Test results as given in patent US10799499B2, “Combinatorial therapies of neurological disorders” (PHARNEXT, priority 2016, dated 2020).

Columns and labels:
[1] = test system: primary cortical neuron cells; test: Toxicity of human Aβ1-42 peptide on primary cortical neuron cells (MAP2 antibody labelling); format: cell-based, rat; settings: combinations versus drugs used alone at the same doses
Procedure: Effect on the Toxicity of Human Aβ1-42 Peptide on Primary Cortical Neuron Cells.
Culture of Primary Cortical Neurons
Rat cortical neurons are cultured as described by Singer et al.. Briefly pregnant female rats of 15 days gestation were killed by cervical dislocation (Rats Wistar) and the foetuses were removed from the uterus. The cortex was removed and placed in ice-cold medium of Leibovitz (L15) containing 2% of Penicillin 10.000 U/ml and Streptomycin 10 mg/ml and 1% of bovine serum albumin (BSA). Cortices were dissociated by trypsin for 20 min at 37° C. (0.05%). The reaction was stopped by the addition of Dulbecco's modified Eagle's medium (DMEM) containing DNase 1 grade II and 10% of fetal calf serum (FCS). Cells were then mechanically dissociated by 3 serial passages through a 10 ml pipette and centrifuged at 515×g for […] at +4° C. The supernatant was discarded and the pellet of cells was re-suspended in a defined culture medium consisting of Neurobasal supplemented with B27 (2%), L-glutamine (0.2 mM), 2% of PS solution and 10 ng/ml of BDNF. Viable cells are counted in a Neubauer cytometer using the trypan blue exclusion test. The cells are seeded at a density of 30 000 cells/well in 96 well-plates (wells were pre-coated with poly-L-lysine (10 μg/ml)) and are cultured at +37° C. in a humidified air (95%)/CO2 (5%) atmosphere.
Three independent cultures are performed per condition, 6 wells per condition.
Test compounds and Human Amyloid-β1-42 Treatment
Briefly, Aβ1-42 peptide is reconstituted in define culture medium at 40 μM (mother solution) and was slowly shaken at +37° C. for 3 days in dark. The control medium is prepared in the same conditions.
After 3 days, the solution is used on primary cortical neurons as follows.
After 10 days of neuron culture, test compounds and combinations thereof are solved in culture medium (+0.1% DMSO) and then pre-incubated with neurons for one hour before the Aβ1_42 application (in a final volume per culture well of 100 μl). One hour after test compound(s) incubation, 100 μl of Aβ1-42 peptide is added to a final concentration of 10 μM diluted in presence of drug(s), in order to avoid further test compound(s) dilutions. Cortical neurons are intoxicated for 24 h. Three separate cultures are performed per condition, 6 wells per condition.
BDNF (50 ng/ml) is used as positive control. Three separate cultures are performed per condition, 12 wells per condition.
MAP2 Antibody Labelling Assay
24 hours after intoxication, the cell culture supernatant is taken off and the cortical neurons are fixed by a cold solution of ethanol (95%) and acetic acid (5%) for 5 min at −20° C. After permeabilization with 0.1% of saponin, cells are incubated for 2 h with mouse monoclonal antibody anti microtubule-associated-protein 2 (MAP-2; Sigma) at dilution of 1/400 in PBS containing 1% fetal calf serum and 0.1% of saponin (this antibody stains specifically cell bodies and neurites, allowing study of both the neurite network and cell death). […] For each condition, 30 pictures per well are taken using InCell Analyzer™ 1000 (GE Healthcare) with 20× magnification. All images are taken with the same conditions. Analysis of total neurite network and number of neurons is performed automatically by using Developer software (GE Healthcare).
Data are expressed in percentage of control conditions (no intoxication, no amyloid=100%) in order to express the amyloid injury. All values are expressed as mean+/−SEM (s.e.mean) of the 3 cultures (n=6 wells per condition). Statistical analyses are done on the different conditions (one-way ANOVA followed by the Dunnett's test when it is allowed, Statview software version 5.0).

Male Swiss mice [2] = test: Spontaneous alternation in the Y-maze (spatial working memory) in mice injected ICV with Aβ25-35; format: in vivo, mouse; settings: oral gavage Day 0 to Day 10, quinoline 1 mg/Kg once a day, baclofen 480 μg/Kg and acamprosate 32 μg/Kg twice a day, test at Day 8
Procedure: (§1) The peptide amyloid-β25-35 (Aβ25-35) is the hydrophobic part of the full-length amyloid peptide. Injection of this peptide in the brain ventricles of rodents is known to induce a progressive neurodegenerative processes resulting in cognitive impairments. This model is commonly used for diseases involving cognitive impairment symptoms.
(§2) Male Swiss mice were administered from Day 0 to Day 10 with sham product (group 1 and 2); 3-phenylsulfonyl-8-(piperazin-1-yl) quinoline (group 3); baclofen and acamprosate (group 4); or 3-phenylsulfonyl-8-(piperazin-1-yl) quinoline, baclofen and acamprosate (group 5).
(§3) 3-phenylsulfonyl-8-(piperazin-1-yl) quinoline) was administered orally by gavage once a day (1 mg/Kg of the individual body weight of each mouse.
(§4) A composition of baclofen and acamprosate was administered orally by gavage twice a day (respectively 480 μg/Kg and 32 μg/Kg of the individual body weight of each mouse).
(§5) At Day 1, oligomeric Aβ25-35 peptide was injected ICV (intracerebroventricular) to provoke amyloid toxicity (group 2, 3, 4 and 5). […]
Animals were tested for spontaneous alternation performance in the Y-maze, an index of spatial working memory. […] The number of maximum alternations was therefore the total number of arm entries minus two and the percentage of alternation was calculated as (actual alternations/maximum alternations)×100. […]

Male Swiss mice [3] = test: Step-through passive avoidance test (contextual long-term memory) in mice injected ICV with Aβ25-35; format: in vivo, mouse; settings: oral gavage Day 0 to Day 10, quinoline 1 mg/Kg once a day, baclofen 480 μg/Kg and acamprosate 32 μg/Kg twice a day, retention at Day 10
Procedure: as §1, §2, §3, §4, §5
All animals were tested for passive avoidance performance, an index of contextual long-term memory. […] The step-through latency, that is, the latency spent to enter the darkened compartment, and the number of vocalizations were recorded. […] The step-through latency was recorded up to 300 s.

With `O=S(=O)(c1ccccc1)c1cnc2c(N3CCNCC3)cccc2c1` [3-phenylsulfonyl-8-(piperazin-1-yl) quinoline] the “protective effect on neuronal cells against Aβ1-42 toxicity” value (shortened to “protective effect on neuronal cells”) [1] was “no or a marginal protective effect”, the “effect on the impairment of cognitive function induced by Aβ(25-35), Y-maze” value (Male Swiss mice [2]) was “did not show any significant effect” and the “effect on the impairment of cognitive function induced by Aβ(25-35), step-through passive avoidance” value (Male Swiss mice [3]) was “did not show any significant effect”.

With `CC(=O)NCCCS(=O)(=O)O` [acamprosate] the “protective effect on neuronal cells” value [1] was “no or a marginal protective effect”.

In the case of `NCC(CC(=O)O)c1ccc(Cl)cc1` (centres unmarked) [baclofen], the “protective effect on neuronal cells” value [1] is reported as “no or a marginal protective effect”.

With `CC12CC3CC(C)(C1)CC(N)(C3)C2` [memantine] the “protective effect on neuronal cells” value [1] was “no or a marginal protective effect”.

In the case of `CCN(C)C(=O)Oc1cccc([C@H](C)N(C)C)c1` [rivastigmine], the “protective effect on neuronal cells” value [1] is reported as “no or a marginal protective effect”.

With `Nc1c2c(nc3ccccc13)CCCC2` [tacrine] the “protective effect on neuronal cells” value [1] was “no or a marginal protective effect”.
